Test [1] concerns the target IDH1R132C (Homo sapiens (Human), UniProt O75874, R132C). The test can be described thus: Inhibitory activity against IDH1R132C enzyme (NADPH detection, WST-8). Type of test: biochemical. To be noted: 10 nM, residual NADPH detected with WST-8, read-out: Test Example 1 IDH1 R132C IC50.
The test system of test [2] is HT-1080 cells expressing IDH1R132C. The test can be described thus: 2-HG production inhibitory activity using HT1080 cell. Type of test: cell-based, human. To be noted: Homo sapiens, HT-1080; 2-HG production, HT1080 cells; read-out: Test Example 3 IC50. As for the experimental part: Then, 100 μL of growth medium B was added to each well, further 25 μL of a solution of each compound diluted to a predetermined concentration with growth medium B was added to each well, and the cells were incubated at 37° C. for 2 days under 5% CO2. […] Then, 150 μL of ultrapure water was further added to each well, and the mixture was stirred by pipetting and stored at −20° C.
The preserved solutions were thawed at room temperature.

For test [3], the system named is HT1080 xenografted mice (IDH1R132C). The test can be described thus: 2-HG production inhibitory activity using HT1080 xenografted mice. Type of test: in vivo, mouse. The conditions noted are these: Mus musculus, HT-1080, po, 6 h, 2-HG production, HT1080 xenografted mice; read-out: Test Example 5 Ratio (%). Summed up:
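Mice bearing HT1080 tumors received 75 mg/kg compound by oral gavage twice a day, three doses in total, at 10 mL/kg; vehicle-dosed mice were negative controls. Tumors were collected 6 h after the final dose, frozen, homogenized in methanol and centrifuged, and 2-HG was measured in the extracts.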

We go through 26 compounds from patent US10040791B2, “Isoxazole derivative as mutant isocitrate dehydrogenase 1 inhibitor” (Daiichi Sankyo Company, Limited, priority 2014, dated 2018).

Sequence of IDH1R132C (O75874 whole entry R132C): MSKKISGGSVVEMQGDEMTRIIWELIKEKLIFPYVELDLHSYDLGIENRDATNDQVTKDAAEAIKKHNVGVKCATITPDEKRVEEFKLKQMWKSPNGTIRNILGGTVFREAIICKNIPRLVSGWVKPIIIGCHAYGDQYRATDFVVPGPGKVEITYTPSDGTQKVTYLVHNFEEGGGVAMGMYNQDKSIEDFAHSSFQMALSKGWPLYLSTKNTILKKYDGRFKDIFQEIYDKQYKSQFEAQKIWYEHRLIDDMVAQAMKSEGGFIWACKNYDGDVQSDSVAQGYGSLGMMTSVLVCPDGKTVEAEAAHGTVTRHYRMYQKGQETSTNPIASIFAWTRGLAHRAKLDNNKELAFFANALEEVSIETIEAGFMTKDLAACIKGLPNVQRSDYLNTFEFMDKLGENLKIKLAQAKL

As a reminder, the IC50 is the point on the concentration scale where inhibition reaches its midpoint. On to `CC(C)(F)c1onc(-c2c(Cl)cc(Cl)cc2Cl)c1C(=O)n1cc(Cl)c2c(/C=C/C(=O)O)cccc21` [Example 66, (2E)-3-(3-Chloro-1-{[5-(2-fluoropropan-2-yl)-3-(2,4,6-trichlorophenyl)-1,2-oxazol-4-yl]carbonyl}-1H-indol-4-yl)prop-2-enoic acid], for which the IC50 worked out at 122 nM in test [1] and 59 nM in test [2]. Besides, the response vs control in vivo at 75 mg/kg in test [3] was 49%.

As to `CC(C)(F)c1onc(-c2c(Cl)cc(Cl)cc2Cl)c1C(=O)n1cc2c3c(c(F)ccc31)/C(=C/C(=O)O)CC2` [Example 67, (2E)-[6-Fluoro-1-{[5-(2-fluoropropan-2-yl)-3-(2,4,6-trichlorophenyl)-1,2-oxazol-4-yl]carbonyl}-3,4-dihydrobenzo[cd]indol-5(1H)-ylidene]ethanoic acid], the concentration for half-maximal inhibition (IC50) amounted to 154 nM in test [1] and 95 nM in test [2]. In test [3], the response vs control in vivo at 75 mg/kg turned out to be 27%.

Take `Cc1cn(C(=O)c2c(-c3c(Cl)cc(Br)cc3Cl)noc2C(C)(C)F)c2cccc(/C=C/C(=O)O)c12` [Example 68, (2E)-3-(1-{[3-(4-Bromo-2,6-dichlorophenyl)-5-(2-fluoropropan-2-yl)-1,2-oxazol-4-yl]carbonyl}-3-methyl-1H-indol-4-yl)prop-2-enoic acid]: the results for the half-inhibitory concentration (IC50) in test [1] and in test [2] were 125 nM and 32 nM, respectively. The response vs control in vivo at 75 mg/kg in test [3] was 47%.

As for `CC(C)(F)c1onc(-c2ccc(Cl)cc2Cl)c1C(=O)n1cc2c3c(cccc31)/C(=C/C(=O)O)CC2` [Example 69, (2E)-[1-{[3-(2,4-Dichlorophenyl)-5-(2-fluoropropan-2-yl)-1,2-oxazol-4-yl]carbonyl}-3,4-dihydrobenzo[cd]indol-5(1H)-ylidene]ethanoic acid], the IC50 in test [1] stood at 168 nM; in test [2], 197 nM. Besides, the response vs control in vivo at 75 mg/kg in test [3] amounted to 20%.

In the case of `Cc1cn(C(=O)c2c(-c3c(Cl)cc(C4CC4)cc3Cl)noc2C(C)(C)F)c2cccc(/C=C/C(=O)O)c12` [Example 70, (2E)-3-(1-{[3-(2,6-Dichloro-4-cyclopropylphenyl)-5-(2-fluoropropan-2-yl)-1,2-oxazol-4-yl]carbonyl}-3-methyl-1H-indol-4-yl)prop-2-enoic acid], the 50% inhibitory concentration (IC50) in test [1] came to 153 nM; in test [2] it was 71 nM. Further, in test [3], the response vs control in vivo at 75 mg/kg stood at 41%.

Regarding `CC(C)(C)c1onc(-c2c(Cl)cc(Cl)cc2Cl)c1C(=O)n1cc(C(F)F)c2c(/C=C/C(=O)O)cccc21` [Example 72, (2E)-3-(1-{[5-(tert-Butyl)-3-(2,4,6-trichlorophenyl)-1,2-oxazol-4-yl]carbonyl}-3-(difluoromethyl)-1H-indol-4-yl)prop-2-enoic acid], the IC50 was 201 nM in test [1] and 59 nM in test [2]. The response vs control in vivo at 75 mg/kg in test [3] was determined as 46%.

As for `COC1(c2onc(-c3c(Cl)cc(Cl)cc3Cl)c2C(=O)n2ccc3c(/C=C/C(=O)O)cccc32)CCC1` [Example 74, (2E)-3-(1-{[5-(1-Methoxycyclobutyl)-3-(2,4,6-trichlorophenyl)-1,2-oxazol-4-yl]carbonyl}-1H-indol-4-yl)prop-2-enoic acid], the IC50 is 175 nM in test [1] and 118 nM in test [2]. In test [3], the response vs control in vivo at 75 mg/kg stood at 20%.

For `COC1(c2onc(-c3c(Cl)cc(Cl)cc3Cl)c2C(=O)n2cc(C)c3c(/C=C/C(=O)O)cccc32)CCC1` [Example 79, (2E)-3-(1-{[5-(1-Methoxycyclobutyl)-3-(2,4,6-trichlorophenyl)-1,2-oxazol-4-yl]carbonyl}-3-methyl-1H-indol-4-yl)prop-2-enoic acid], the IC50 in test [1] was 161 nM; in test [2], 35 nM. The response vs control in vivo at 75 mg/kg in test [3] came to 15%.

For `Cc1cn(C(=O)c2c(-c3c(Cl)cc(Cl)cc3Cl)noc2C2(N(C)C)CCC2)c2cccc(/C=C/C(=O)O)c12` [Example 81, (2E)-3-(1-{[5-[1-(Dimethylamino)cyclobutyl]-3-(2,4,6-trichlorophenyl)-1,2-oxazol-4-yl]carbonyl}-3-methyl-1H-indol-4-yl)prop-2-enoic acid], the values for the IC50 in test [1] and in test [2] were 163 nM and 31 nM, respectively. Moreover, the response vs control in vivo at 75 mg/kg in test [3] came out at 15%.

Take `CNC1(c2onc(-c3c(Cl)cc(Cl)cc3Cl)c2C(=O)n2cc(C)c3c(/C=C/C(=O)O)cccc32)CCC1` [Example 83, (2E)-3-(3-Methyl-1-{[5-[1-(methylamino)cyclobutyl]-3-(2,4,6-trichlorophenyl)-1,2-oxazol-4-yl]carbonyl}-1H-indol-4-yl)prop-2-enoic acid]: the results for the IC50 in test [1] and in test [2] were 87 nM and 33 nM, respectively. Further, the response vs control in vivo at 75 mg/kg in test [3] worked out at 23%.

Regarding `C=CC(=O)N(C)C1(c2onc(-c3c(Cl)cc(Cl)cc3Cl)c2C(=O)n2cc(C)c3c(/C=C/C(=O)O)cccc32)CCC1` [Example 87, (2E)-3-(1-{[5-{1-[Acryloyl(methyl)amino]cyclobutyl}-3-(2,4,6-trichlorophenyl)-1,2-oxazol-4-yl]carbonyl}-3-methyl-1H-indol-4-yl)prop-2-enoic acid], the concentration for half-maximal inhibition (IC50) in test [1] is 145 nM; in test [2] it was 71 nM. Also, in test [3], the response vs control in vivo at 75 mg/kg is 68%.

Turning to `C=CC(=O)N1CCC(c2onc(-c3c(Cl)cc(Cl)cc3Cl)c2C(=O)n2cc3c4c(cccc42)/C(=C/C(=O)O)CC3)CC1` [Example 94, (2E)-[1-{[5-(1-Acryloylpiperidin-4-yl)-3-(2,4,6-trichlorophenyl)-1,2-oxazol-4-yl]carbonyl}-3,4-dihydrobenzo[cd]indol-5(1H)-ylidene]ethanoic acid], the IC50 in test [1] came to 159 nM; in test [2] it was 3 nM. Besides, the response vs control in vivo at 75 mg/kg in test [3] is 1%.

With `C=CC(=O)N1CC(c2onc(-c3c(Cl)cc(Cl)cc3Cl)c2C(=O)n2ccc3c(/C=C/C(=O)O)cccc32)C1` [Example 95], the IC50 was determined as 67 nM in test [1] and 89 nM in test [2]. Moreover, the response vs control in vivo at 75 mg/kg in test [3] was 44%.

As for `C=CC(=O)N1CCC(c2onc(-c3c(Cl)cc(Cl)cc3Cl)c2C(=O)n2ccc3c(/C=C/C(=O)O)cccc32)CC1` [Example 99], the 50% inhibitory concentration (IC50) in test [1] turned out to be 272 nM; in test [2], 34 nM. Besides, in test [3], the response vs control in vivo at 75 mg/kg stood at 15%.

With `C#CC(=O)N1CCC(c2onc(-c3c(Cl)cc(Cl)cc3Cl)c2C(=O)n2ccc3c(/C=C/C(=O)O)cccc32)CC1` [Example 100], the IC50 in test [1] came out at 189 nM; in test [2], 28 nM. In addition, the response vs control in vivo at 75 mg/kg in test [3] worked out at 75%.

As for `C=CS(=O)(=O)N1CCC(c2onc(-c3c(Cl)cc(Cl)cc3Cl)c2C(=O)n2ccc3c(/C=C/C(=O)O)cccc32)CC1` [Example 103], the IC50 amounted to 114 nM in test [1] and 506 nM in test [2]. For the same compound, the response vs control in vivo at 75 mg/kg in test [3] is 90%.

On to `C=CC(=O)N1CCC(c2onc(-c3c(Cl)cc(Cl)cc3Cl)c2C(=O)n2cc(C)c3c(/C=C/C(=O)O)cccc32)CC1` [Example 104], for which the IC50 in test [1] stood at 93 nM; in test [2], 7 nM. In test [3], the response vs control in vivo at 75 mg/kg was found to be 8%.

Consider `C=CC(=O)N1CCC(c2onc(-c3c(Cl)cc(Cl)cc3Cl)c2C(=O)n2ccc3c(C4CC4C(=O)O)cccc32)CC1` (stereo not drawn) [Example 105], for which the results for the IC50 in test [1] and in test [2] were 567 nM and 32 nM, respectively. The response vs control in vivo at 75 mg/kg in test [3] was 27%.

Regarding `C=CC(=O)N1CCC(c2onc(-c3ccc(Cl)cc3Cl)c2C(=O)n2cc(C)c3c(/C=C/C(=O)O)cccc32)CC1` [Example 106], the IC50 was 149 nM in test [1] and 23 nM in test [2]. Besides, the response vs control in vivo at 75 mg/kg in test [3] came to 12%.

As for `C=CC(=O)N1CCC(c2onc(-c3c(Cl)cccc3Cl)c2C(=O)n2cc(C)c3c(/C=C/C(=O)O)cccc32)CC1` [Example 108], the IC50 in test [1] worked out at 149 nM; in test [2], 38 nM. Moreover, the response vs control in vivo at 75 mg/kg in test [3] was 58%.

As for `C=CC(=O)N1CCC(c2onc(-c3c(C)cc(C)cc3C)c2C(=O)n2ccc3c(/C=C/C(=O)O)cccc32)CC1` [Example 109], the half-inhibitory concentration (IC50) in test [1] is 243 nM; in test [2], 45 nM. The response vs control in vivo at 75 mg/kg in test [3] amounted to 23%.

With `C=CC(=O)N1CCC(c2onc(-c3c(C)cc(Cl)cc3C)c2C(=O)n2ccc3c(/C=C/C(=O)O)cccc32)CC1` [Example 110], the IC50 turned out to be 316 nM in test [1] and 48 nM in test [2]. Besides, the response vs control in vivo at 75 mg/kg in test [3] worked out at 52%.

Take `C=CC(=O)N1CCC(c2onc(-c3c(Cl)cc(F)cc3Cl)c2C(=O)n2cc(C)c3c(/C=C/C(=O)O)cccc32)CC1` [Example 112]: the figures for the half-inhibitory concentration (IC50) in test [1] and in test [2] were 115 nM and 12 nM, respectively. Also, the response vs control in vivo at 75 mg/kg in test [3] amounted to 15%.

Turning to `C=CC(=O)N1CCC(C)(c2onc(-c3c(Cl)cc(Cl)cc3Cl)c2C(=O)n2cc(C)c3c(/C=C/C(=O)O)cccc32)CC1` [Example 113], the IC50 is 104 nM in test [1] and 2 nM in test [2]. For the same compound, the response vs control in vivo at 75 mg/kg in test [3] was 13%.

In the case of `C=CC(=O)N1CCC(c2onc(-c3c(C)cc(C)cc3C)c2C(=O)n2cc(C)c3c(/C=C/C(=O)O)cccc32)CC1` [Example 114], the values for the half-inhibitory concentration (IC50) in test [1] and in test [2] were 81 nM and 3 nM, respectively. The response vs control in vivo at 75 mg/kg in test [3] amounted to 12%.

With `C=CC(=O)N1CCC(c2onc(-c3c(Cl)cc(Cl)cc3Cl)c2C(=O)n2cc(C)c3c(CCC(=O)O)cccc32)CC1` [Example 115], the IC50 in test [1] was found to be 301 nM; in test [2], 32 nM. Besides, the response vs control in vivo at 75 mg/kg in test [3] was 12%.
